In ChEMBL document CHEMBL1201862, “PubChem BioAssay data set” (2004) one finds EC50, IC50 and AC50 data, which are given here for two molecules.

Each structure is given as a SMILES string. Activity calls are given as the source filed them.

Assay [1] deals with HEK293. Briefly: optical interference in Abeta FP readout, dose response, artefact control for IDE activator project, biochemical, fluorescence polarization (AID 588442). In kind it is functional, cell-based. To be noted: Homo sapiens.
The target in assay [2] is T1, Insulin-degrading enzyme (Homo sapiens, UniProt P14735).
T1 sequence (P14735 whole entry): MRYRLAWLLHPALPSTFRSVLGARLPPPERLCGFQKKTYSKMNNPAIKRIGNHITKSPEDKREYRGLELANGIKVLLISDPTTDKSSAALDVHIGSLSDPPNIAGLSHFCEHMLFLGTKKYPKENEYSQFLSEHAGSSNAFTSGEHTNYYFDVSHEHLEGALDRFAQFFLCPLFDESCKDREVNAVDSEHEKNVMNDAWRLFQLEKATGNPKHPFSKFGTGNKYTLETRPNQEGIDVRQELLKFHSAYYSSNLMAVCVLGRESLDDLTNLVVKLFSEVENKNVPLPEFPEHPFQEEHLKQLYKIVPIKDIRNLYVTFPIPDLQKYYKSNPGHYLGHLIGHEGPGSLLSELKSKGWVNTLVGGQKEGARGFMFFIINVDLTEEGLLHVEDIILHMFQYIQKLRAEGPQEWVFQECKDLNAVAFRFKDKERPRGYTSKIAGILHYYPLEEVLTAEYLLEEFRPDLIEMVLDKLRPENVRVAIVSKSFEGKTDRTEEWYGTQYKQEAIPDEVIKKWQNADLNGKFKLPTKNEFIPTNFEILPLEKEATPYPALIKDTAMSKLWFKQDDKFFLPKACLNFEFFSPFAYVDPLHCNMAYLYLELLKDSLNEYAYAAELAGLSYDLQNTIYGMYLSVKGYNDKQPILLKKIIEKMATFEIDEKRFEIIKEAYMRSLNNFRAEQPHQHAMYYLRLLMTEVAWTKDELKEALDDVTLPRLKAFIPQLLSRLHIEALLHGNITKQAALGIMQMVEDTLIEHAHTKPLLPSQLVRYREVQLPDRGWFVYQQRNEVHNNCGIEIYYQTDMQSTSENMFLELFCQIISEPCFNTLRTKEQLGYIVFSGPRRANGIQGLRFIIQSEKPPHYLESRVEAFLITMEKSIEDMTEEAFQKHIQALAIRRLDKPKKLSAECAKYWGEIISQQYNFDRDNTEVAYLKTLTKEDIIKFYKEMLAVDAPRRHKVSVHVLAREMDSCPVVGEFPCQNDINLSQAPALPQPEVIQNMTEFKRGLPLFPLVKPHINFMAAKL
Briefly: cellular IDE activation of Abeta substrate cleavage – fluorescence polarization, HEK cells, dose response (AID 588439). Type of assay: functional, cell-based. On the technique in general: In fluorescence polarisation assays a small probe gives low polarisation when free and higher when bound to something large.

Assay [3] concerns HEK293. Briefly: membrane integrity loss in HEK cells – cell-based, fluorescence, cytotoxicity control for IDE activator project, dose response (AID 588440).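 Also: cytotoxicity by LDH release measuring loss of membrane integrity.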 In kind it is functional. The note with it: Homo sapiens.
The target in assay [4] is T1, Insulin-degrading enzyme. In words: recombinant IDE activation, cell-free – biochemical, fluorescence polarization, counter-screen for IDE activator project, dose response (AID 588681).
The test system of a further assay is INS1. Briefly: INS-1E survival protection against cytokine death – cell-based, luminescence, retest, dose response (AID 449756).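 Also: cell death triggered by IL-1 beta plus TNF-alpha plus IFN-gamma mixture; protective hits raise ATP signal compared with cytokine alone wells.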 Type of assay: functional. To be noted: Rattus norvegicus.
A further assay has as its target Beta Lactamase (Pseudomonas aeruginosa, UniProt Q932Y6). In words: BLA reporter interference, concentration series – BLA reporter cells, FRET fluorescence, artefact control for TLR9-MyD88 binding inhibitor project, dose response (AID 588341).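 Also: cell based assay in CHO-K1 cells stably expressing beta-lactamase.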 Type of assay: cell-based.
Assay [5] concerns the target NACHT, LRR and PYD domains-containing protein 3 (Homo sapiens, UniProt Q96P20). In words: NALP3 inhibitors in yeast, dose response, luminescent (AID 488799). Type of assay: functional.
A short description of assay [6]: non-specific 3'UTR reporter inhibition in Clone20-Shn3RL – cell-based, Renilla luciferase, cherry-picked, counter-screen for Shn3 inhibitor project, dose response (AID 624133). Type of assay: functional. Background: A counterscreen serves to expose hits that act by an unwanted route or on another target.
A short description of assay [7]: reduction of Shn3 3'UTR-driven luciferase in osteoblasts – cell-based, Clone20 osteoblasts, firefly luciferase, cherry-picked, dose response (AID 624132).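 Also: firefly luciferase luminescence from reporter carrying the Shn3 3'UTR in osteoblasts.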 In kind it is functional.
A short description of assay [8]: Luminescence Cell-Based Dose Retest to Confirm Inhibitors of Cancer Stem Cells. [Related pubchem assays (depositor defined):AID2717, AID2721]. In kind it is functional. The note with it: Homo sapiens.
Assay [9] concerns the target T2, Replicative DNA helicase DnaB (Mycobacterium tuberculosis, UniProt P9WMR3).
T2 sequence (P9WMR3 whole entry): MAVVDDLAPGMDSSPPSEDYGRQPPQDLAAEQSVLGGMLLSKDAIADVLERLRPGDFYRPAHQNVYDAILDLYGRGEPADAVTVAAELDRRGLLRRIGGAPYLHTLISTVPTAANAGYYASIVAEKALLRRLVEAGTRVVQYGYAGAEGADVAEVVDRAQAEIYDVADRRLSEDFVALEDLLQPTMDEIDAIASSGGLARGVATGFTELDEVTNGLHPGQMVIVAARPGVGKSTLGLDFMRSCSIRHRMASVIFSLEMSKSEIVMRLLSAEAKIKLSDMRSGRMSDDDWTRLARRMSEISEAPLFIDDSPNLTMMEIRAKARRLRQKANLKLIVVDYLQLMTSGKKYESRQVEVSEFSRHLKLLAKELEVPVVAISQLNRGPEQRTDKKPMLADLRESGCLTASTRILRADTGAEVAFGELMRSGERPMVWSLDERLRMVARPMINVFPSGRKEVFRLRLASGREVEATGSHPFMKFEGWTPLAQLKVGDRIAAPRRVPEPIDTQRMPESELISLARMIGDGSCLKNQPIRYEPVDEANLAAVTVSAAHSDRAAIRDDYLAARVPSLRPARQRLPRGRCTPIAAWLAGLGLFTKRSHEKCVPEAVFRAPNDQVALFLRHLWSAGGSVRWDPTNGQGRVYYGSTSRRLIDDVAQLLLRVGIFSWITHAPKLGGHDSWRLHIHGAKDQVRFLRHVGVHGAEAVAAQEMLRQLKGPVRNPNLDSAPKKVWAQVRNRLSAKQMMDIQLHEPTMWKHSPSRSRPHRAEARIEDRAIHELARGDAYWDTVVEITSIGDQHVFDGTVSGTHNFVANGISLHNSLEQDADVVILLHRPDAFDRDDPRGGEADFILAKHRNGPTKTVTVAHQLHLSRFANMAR
Briefly: DnaB intein splicing inhibitors, dose response, biochemical, cell-free fluorescence (AID 449749). Type of assay: functional.

In another assay the test system is CHO. Briefly: CHO cell viability loss, potency – luminescence, cytotoxicity control for TLR9-MyD88 binding inhibitor project, dose response (AID 588339).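 Also: CHO cells stably coexpressing TLR9 and MyD88 fusions from primary screen; compound exposure lasted 48 hours before viability readout.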 In kind it is functional, cell-based, hamster. The note with it: Cricetulus griseus.
Assay [10] deals with ATP-binding cassette sub-family B member 6 (Homo sapiens, UniProt Q9NP58). Briefly: concentration-dependent ABCB6 porphyrin transport blockade – K562-ABCB6 cells, flow cytometry, cherry pick 1, dose response (AID 623955). Type of assay: functional. To be noted: read-out: EC50_MICROM. In general terms: A flow cytometer gives signals particle by particle.
In assay [11] the target is Heat shock protein HSP 90-alpha (Homo sapiens, UniProt P07900). Type of assay: functional, organism-based.
In a further assay the target is T3, Protein RecA (Mycobacterium tuberculosis, UniProt P9WHJ3).
T3 sequence (P9WHJ3 whole entry): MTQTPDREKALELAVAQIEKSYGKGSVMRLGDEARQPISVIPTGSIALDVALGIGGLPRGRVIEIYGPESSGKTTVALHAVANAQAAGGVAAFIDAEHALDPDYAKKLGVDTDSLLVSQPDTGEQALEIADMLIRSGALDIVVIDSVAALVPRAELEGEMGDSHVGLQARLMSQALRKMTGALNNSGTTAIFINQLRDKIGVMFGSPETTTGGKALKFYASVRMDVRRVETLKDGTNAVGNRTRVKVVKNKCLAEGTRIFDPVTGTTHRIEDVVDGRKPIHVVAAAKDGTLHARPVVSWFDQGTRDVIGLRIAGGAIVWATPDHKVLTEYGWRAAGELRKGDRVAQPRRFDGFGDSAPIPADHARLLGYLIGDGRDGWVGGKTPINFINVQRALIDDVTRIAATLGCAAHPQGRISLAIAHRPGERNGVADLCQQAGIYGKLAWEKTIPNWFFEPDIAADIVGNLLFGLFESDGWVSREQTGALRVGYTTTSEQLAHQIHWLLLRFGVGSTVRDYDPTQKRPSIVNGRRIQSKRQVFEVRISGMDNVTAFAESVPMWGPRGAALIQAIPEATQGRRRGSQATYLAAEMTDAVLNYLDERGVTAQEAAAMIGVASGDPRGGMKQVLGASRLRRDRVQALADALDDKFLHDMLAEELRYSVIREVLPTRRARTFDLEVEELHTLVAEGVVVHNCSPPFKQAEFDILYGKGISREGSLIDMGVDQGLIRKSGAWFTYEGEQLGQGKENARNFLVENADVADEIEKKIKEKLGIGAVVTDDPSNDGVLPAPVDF
In words: Fluorescence Cell-Free Homogeneous Dose Retest to Identify Inhibitors of RecA-Intein Splicing Activity. [Related pubchem assays (depositor defined):AID2097, AID2223, AID489010, AID492950]. Type of assay: functional.

Assay [12] can be described thus: loss of viability in HepG2 cells – cell-based, CellTiter-Glo, cherry-picked, cytotoxicity control for Shn3 inhibitor project, dose response (AID 624134). Type of assay: functional.

ATP-binding cassette sub-family B member 6, sequence (Q9NP58 whole entry): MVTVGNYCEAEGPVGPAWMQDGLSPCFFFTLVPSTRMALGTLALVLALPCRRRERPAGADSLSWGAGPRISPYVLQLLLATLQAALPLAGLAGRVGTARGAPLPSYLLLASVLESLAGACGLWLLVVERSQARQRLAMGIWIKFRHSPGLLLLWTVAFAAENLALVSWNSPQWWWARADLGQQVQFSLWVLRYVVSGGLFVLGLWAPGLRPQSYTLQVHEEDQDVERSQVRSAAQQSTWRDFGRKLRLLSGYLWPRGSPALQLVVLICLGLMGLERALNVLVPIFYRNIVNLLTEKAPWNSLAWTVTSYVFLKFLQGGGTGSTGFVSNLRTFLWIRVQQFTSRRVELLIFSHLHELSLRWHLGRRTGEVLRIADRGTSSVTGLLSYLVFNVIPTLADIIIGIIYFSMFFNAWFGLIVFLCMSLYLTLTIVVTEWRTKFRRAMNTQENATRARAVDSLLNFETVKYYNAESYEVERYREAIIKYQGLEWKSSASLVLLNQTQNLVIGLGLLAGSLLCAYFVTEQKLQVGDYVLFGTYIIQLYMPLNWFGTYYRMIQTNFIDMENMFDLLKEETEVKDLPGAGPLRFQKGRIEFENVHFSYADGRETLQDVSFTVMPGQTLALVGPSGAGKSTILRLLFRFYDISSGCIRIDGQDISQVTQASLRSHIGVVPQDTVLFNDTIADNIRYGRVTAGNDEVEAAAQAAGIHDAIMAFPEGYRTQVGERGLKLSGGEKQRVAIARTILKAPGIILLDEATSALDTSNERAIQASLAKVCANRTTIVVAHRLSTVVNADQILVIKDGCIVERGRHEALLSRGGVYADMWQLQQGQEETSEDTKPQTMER
NACHT, LRR and PYD domains-containing protein 3, sequence (Q96P20 whole entry, the tested form may be a part): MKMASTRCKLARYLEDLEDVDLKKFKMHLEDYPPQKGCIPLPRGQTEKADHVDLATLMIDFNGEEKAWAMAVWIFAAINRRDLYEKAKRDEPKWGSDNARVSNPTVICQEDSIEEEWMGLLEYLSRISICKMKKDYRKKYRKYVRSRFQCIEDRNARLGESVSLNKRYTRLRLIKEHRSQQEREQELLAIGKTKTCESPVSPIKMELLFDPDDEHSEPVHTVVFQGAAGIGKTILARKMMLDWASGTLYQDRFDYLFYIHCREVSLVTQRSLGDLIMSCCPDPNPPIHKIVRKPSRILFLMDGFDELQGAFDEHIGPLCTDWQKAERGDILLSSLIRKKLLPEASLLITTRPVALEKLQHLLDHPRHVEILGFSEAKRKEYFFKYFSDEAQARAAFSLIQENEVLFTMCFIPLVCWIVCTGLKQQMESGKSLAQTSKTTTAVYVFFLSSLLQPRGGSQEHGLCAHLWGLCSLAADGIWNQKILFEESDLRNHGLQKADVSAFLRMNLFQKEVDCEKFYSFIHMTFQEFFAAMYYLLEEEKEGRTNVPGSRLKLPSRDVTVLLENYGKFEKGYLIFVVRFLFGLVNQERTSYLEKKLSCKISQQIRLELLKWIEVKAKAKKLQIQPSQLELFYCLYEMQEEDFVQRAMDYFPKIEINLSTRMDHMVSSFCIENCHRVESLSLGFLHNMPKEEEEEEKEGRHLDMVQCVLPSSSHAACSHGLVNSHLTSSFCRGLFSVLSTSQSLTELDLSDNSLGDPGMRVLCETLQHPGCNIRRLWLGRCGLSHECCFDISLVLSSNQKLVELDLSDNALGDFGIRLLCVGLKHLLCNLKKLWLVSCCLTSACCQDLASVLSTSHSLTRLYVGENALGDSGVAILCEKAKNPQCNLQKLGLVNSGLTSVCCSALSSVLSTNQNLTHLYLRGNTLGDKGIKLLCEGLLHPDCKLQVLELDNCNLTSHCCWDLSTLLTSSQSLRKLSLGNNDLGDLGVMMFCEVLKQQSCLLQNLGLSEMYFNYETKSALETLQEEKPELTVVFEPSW
Beta Lactamase, sequence (Q932Y6 whole entry, the tested form may be a part): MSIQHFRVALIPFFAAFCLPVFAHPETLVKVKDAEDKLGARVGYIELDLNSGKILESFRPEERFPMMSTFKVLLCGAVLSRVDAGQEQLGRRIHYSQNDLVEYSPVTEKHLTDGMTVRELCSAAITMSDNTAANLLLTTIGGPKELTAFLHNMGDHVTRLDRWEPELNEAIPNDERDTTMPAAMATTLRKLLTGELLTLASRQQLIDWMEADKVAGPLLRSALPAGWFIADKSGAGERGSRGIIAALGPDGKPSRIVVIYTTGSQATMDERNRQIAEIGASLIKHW

Take `COc1ccc(CCNC(=O)COC(=O)C2CC2C)cc1OC` (stereo unspecified): the figures for the EC50 in the assay with HEK293 [1], on Insulin-degrading enzyme [2] and on Insulin-degrading enzyme [4] were > 55.9 µM (inactive), > 54.7 µM (inactive) and > 54.7 µM (inactive), respectively. The IC50 – broadly, the point on the concentration scale where inhibition reaches its midpoint – in the assay with HEK293 [3] is > 89.2 µM (inactive).
`Cc1ccc(NC(=O)c2nc(S(=O)(=O)Cc3ccccc3)ncc2Cl)cc1`: the AC50 – broadly, the concentration at which the activity in the assay is half-maximal – in the assay with INS1 is 9.27 µM (active); in assay [6] it was 6.01 µM (active); in [7], 3.42 µM (active); in [8], 2.57 µM (active); in assay [9] it was 23 µM (active); in assay [11], 3.21 µM (active). For the same molecule, the AC50 in [12] was 24.6 µM (active). The IC50 at Beta Lactamase is 8.3 µM (active); in assay [5], 3.58 µM (active); in the assay with CHO it was 3.31 µM (active). The EC50 was 34.7 µM (active) in assay [10] and 0.88 µM (active) on Protein RecA.
